We go through 23 molecules from patent US11225505B2, “Antimicrobial polymyxin derivative compounds” (MONASH UNIVERSITY, priority 2015, dated 2022).

In brackets after ≈: the same amount, converted by molar mass. Like-named read-outs stand apart in the source and are kept apart here. Where a SMILES comes first, the peptide text is derived from it. Bridges are numbered along the chain shown (N, C = ends). [ ]: non-standard residue; d: D form. The star is where a group is joined. X58 = Cn1cc(CC(=O)*)c2ccccc21; X23 = O=C(c1cc2ccccc2[nH]1)*; Dab = NCC[C@H](N)C(=O)O; Abu = CC[C@H](N)C(=O)O; Dap = NC[C@H](N)C(=O)O

Holding throughout (type): cell-based
Test [1] concerns Acinetobacter baumannii ATCC 17978. Particulars: ATCC 17978. As for the experimental part:
(§1) MICs of the lipopeptides (trifluoroacetic acid salt, TFA) were determined by broth microdilution in cation-adjusted Mueller-Hinton broth (CAMHB) (Oxoid Australia, Thebarton, SA, Australia) according to the Clinical and Laboratory Standards Institute protocol (Clinical and Laboratory Standards Institute, Performance standards for antimicrobial susceptibility testing; twentyforth informational supplement M100-S24. Wayne, Pa., 2014). Polymyxin B sulphate was employed as the control. Antimicrobial activity of Compounds 1-104 against polymyxin-susceptible Gram-negative bacteria was examined. The following isolates were examined: Pseudomonas aeruginosa ATCC 27853, Pseudomonas aeruginosa FADDI-PA022*, Pseudomonas aeruginosa FADDI-PA01*, Pseudomonas aeruginosa FADDI-PA038*, Acinetobacter baumannii FADDI-AB034*, Acinetobacter baumannii ATCC 17978, Acinetobacter baumannii FADDI-AB030*, Klebsiella pneumoniae FADDI-KP032, Klebsiella pneumoniae FADDI-KP022*, Klebsiella pneumoniae Kp BM1*, Enterobacter cloacae FADDI-EC006, Enterobacter cloacae FADDI-EC001, and Enterobacter cloacae FADDI-EC003 (* Multi drug-resistant clinical isolates, § New Delhi Metallo-beta-lactamase-1 (NDM-1) producing). The results are illustrated in Tables 4 and 5.

Test [2] relates to Acinetobacter baumannii FADDI-AB034. Particulars: FADDI-AB034. How it is done: as §1
Test [3] has as its system Enterobacter cloacae FADDI-EC001. Particulars: FADDI-EC001. As for the experimental part: as §1
Test [4] concerns Enterobacter cloacae FADDI-EC003. Particulars: FADDI-EC003. How it is done: as §1
Test [5] concerns Enterobacter cloacae FADDI-EC006. To be noted: FADDI-EC006. How it is done:
as §1

In test [6] the test system is Klebsiella pneumoniae FADDI-KP022. Particulars: FADDI-KP022. As for the experimental part: as §1
Test [7] has as its system Klebsiella pneumoniae FADDI-KP032. Particulars: FADDI-KP032. How it is done:
as §1

The subject of test [8] is Klebsiella pneumoniae Kp BM1. To be noted: Kp BM1. As for the experimental part: as §1
Test [9] relates to Pseudomonas aeruginosa ATCC 27853. Particulars: ATCC 27853. How it is done: as §1
Test [10] deals with Pseudomonas aeruginosa FADDI-PA01. Particulars: FADDI-. As for the experimental part: as §1
The subject of test [11] is Pseudomonas aeruginosa FADDI-PA022. Particulars: FADDI-PA022. How it is done:
as §1

The subject of test [12] is Pseudomonas aeruginosa FADDI-PA038. To be noted: FADDI-PA038. As for the experimental part:
as §1

For test [13], the system named is Acinetobacter baumannii FADDI-AB030. The experiment in a line: microbe, parasite or virus in culture. Particulars: for MIC: Acinetobacter baumannii. How it is done:
as §1, with “Antimicrobial activity of Compounds 1-104 against polymyxin-susceptible Gram-negative bacteria was examined.” left out, “5. […]” for “5.”

The mark [14] stands for this setting: FADDIAB030, clinically used antibiotics, clinical isolate A. baumannii FADDI-AB030, read-out: minimum inhibitory concentration.

With `CC(C)C[C@H]1NC(=O)[C@H](CCN)NC(=O)[C@@H](NC(=O)[C@H](CN)NC(=O)[C@@H](NC(=O)[C@H](CCN)NC(=O)c2cc3ccccc3[nH]2)[C@@H](C)O)CCNC(=O)[C@H]([C@@H](C)O)NC(=O)[C@H](CCN)NC(=O)[C@H](CCN)NC(=O)[C@H]([C@@H](C)O)NC1=O` [Compound 66] (X23-[Dab]T[Dap][Dab][Dab][dL]T[Dab][Dab]T; lactam 4-C), the Minimum inhibitory concentration in [1] amounted to 2 mg/L (≈ 1.74 µM); in [2], 1 mg/L (≈ 0.872 µM); in test [3], 0.5 mg/L (≈ 0.436 µM); in [4], 0.5 mg/L (≈ 0.436 µM); in test [5] it was 1 mg/L (≈ 0.872 µM); in test [6], 0.5 mg/L (≈ 0.436 µM). For the same molecule, the Minimum inhibitory concentration in test [7] is 1 mg/L (≈ 0.872 µM); in test [8], 0.5 mg/L (≈ 0.436 µM); in [9] it was 0.5 mg/L (≈ 0.436 µM); in test [10], 2 mg/L (≈ 1.74 µM); in test [11] it was 0.25 mg/L (≈ 0.218 µM); in test [12] it was 2 mg/L (≈ 1.74 µM). Besides, the Minimum inhibitory concentration in test [13] (FADDI-AB030) was 1 mg/L (≈ 0.872 µM).

In the case of `CC[C@@H]1NC(=O)[C@@H](CC(C)C)NC(=O)[C@H](CCN)NC(=O)[C@@H](NC(=O)[C@H](CN)NC(=O)[C@@H](NC(=O)[C@H](CCN)NC(=O)Cc2cn(C)c3ccccc23)[C@@H](C)O)CCNC(=O)[C@H]([C@@H](C)O)NC(=O)[C@H](CCN)NC(=O)[C@H](CCN)NC1=O` [Compound 62] (X58-[Dab]T[Dap][Dab][Dab][dL][Abu][Dab][Dab]T; lactam 4-C), the Minimum inhibitory concentration is on record as 0.5 mg/L (≈ 0.432 µM) in test [1]; 0.5 mg/L (≈ 0.432 µM) in [2]; below 0.125 mg/L in test [3]; 0.25 mg/L (≈ 0.216 µM) in test [4]; 0.5 mg/L (≈ 0.432 µM) in test [5]; below 0.125 mg/L in test [6]. Moreover, the Minimum inhibitory concentration is recorded as below 0.125 mg/L in test [7]; 0.25 mg/L (≈ 0.216 µM) in [8]; 0.5 mg/L (≈ 0.432 µM) in test [9]; 1 mg/L (≈ 0.863 µM) in test [10]; 0.5 mg/L (≈ 0.432 µM) in test [11]; 0.5 mg/L (≈ 0.432 µM) in test [12]. Besides, in test [13] (FADDI-AB030), the Minimum inhibitory concentration is listed as 0.5 mg/L (≈ 0.432 µM).

Turning to `CN(C)[C@@H]1C(O)=C(C(N)=O)C(=O)[C@@]2(O)C(O)=C3C(=O)c4c(O)cccc4[C@@](C)(O)[C@H]3C[C@@H]12` [Tetracycline, reference compound], the MIC in test [13] (setting [14]) was above 8 µg/mL.

Turning to `C[C@@H](O)[C@H]1C(=O)N2C(C(=O)O)=C(SCCN=CN)C[C@H]12` [Imipenem, reference compound], the MIC in test [13] (setting [14]) is above 8 µg/mL.

As for `COc1c(N2C[C@@H]3CCCN[C@@H]3C2)c(F)cc2c(=O)c(C(=O)O)cn(C3CC3)c12` [Moxifloxacin, reference compound], in test [13] (setting [14]), the MIC is above 4 µg/mL.

As to `CO/N=C(\C(=O)N[C@@H]1C(=O)N2C(C(=O)[O-])=C(C[N+]3(C)CCCC3)CS[C@H]12)c1csc(N)n1` [Cefepime, reference compound], in [13] (setting [14]), the MIC was above 16 µg/mL.

Regarding `C[C@H]1c2cccc(O)c2C(=O)C2=C(O)[C@]3(O)C(=O)C(C(N)=O)=C(O)[C@@H](N(C)C)[C@@H]3[C@@H](O)[C@@H]21` [Doxycycline, reference compound], the MIC in [13] (setting [14]) is above 8 µg/mL.

On to `C[C@H]1COc2c(N3CCN(C)CC3)c(F)cc3c(=O)c(C(=O)O)cn1c23` [Levofloxacin, reference compound], for which, in test [13] (setting [14]), the MIC was above 4 µg/mL.

Take Gentamicin [reference compound]: the Minimum inhibitory concentration in test [13] (clinically used antibiotics, clinical isolate A. baumannii FADDI-AB030) is on record as above 8 mg/L.

As to `C[C@@H](O)[C@H]1C(=O)N2C(C(=O)O)=C(S[C@@H]3CN[C@H](C(=O)N(C)C)C3)[C@H](C)[C@H]12` [Meropenem, reference compound], the MIC in [13] (setting [14]) is above 8 µg/mL.

As for `CN(C)c1ccc(O)c2c1C[C@H]1C[C@H]3[C@H](N(C)C)C(O)=C(C(N)=O)C(=O)[C@@]3(O)C(O)=C1C2=O` [Minocycline, reference compound], the MIC in [13] (setting [14]) is above 8 µg/mL.

As to `C[C@@H](O)[C@H]1C(=O)N2C(C(=O)O)=C(S[C@@H]3CN[C@H](CNS(N)(=O)=O)C3)[C@H](C)[C@H]12` [Doripenem, reference compound], in test [13] (setting [14]), the MIC is above 8 µg/mL.

Consider `C[C@@H](O)[C@H]1C(=O)N2C(C(=O)O)=C(S[C@@H]3CN[C@H](C(=O)Nc4cccc(C(=O)O)c4)C3)[C@H](C)[C@H]12` [Ertapenem, reference compound], for which, in test [13] (setting [14]), the MIC was above 8 µg/mL.

Turning to `COc1c(N2CCNC(C)C2)c(F)cc2c(=O)c(C(=O)O)cn(C3CC3)c12` (centres unmarked) [Gatifloxacin, reference compound], the MIC in test [13] (setting [14]) was above 4 µg/mL.

As for `C[C@H]1[C@H](NC(=O)/C(=N\OC(C)(C)C(=O)O)c2csc(N)n2)C(=O)N1S(=O)(=O)O` [Aztreonam, reference compound], in test [13] (setting [14]), the MIC was above 16 µg/mL.

Turning to `CC1(C)S[C@@H]2[C@H](NC(=O)[C@H](N)c3ccccc3)C(=O)N2[C@H]1C(=O)O` [Ampicillin, reference compound], the MIC in test [13] (setting [14]) is above 16 µg/mL.

Consider `NC[C@H]1O[C@H](O[C@H]2[C@H](O)[C@@H](O[C@H]3O[C@H](CO)[C@@H](O)[C@H](N)[C@H]3O)[C@H](N)C[C@@H]2N)[C@H](N)C[C@@H]1O` [Tobramycin, reference compound], for which the MIC in test [13] (setting [14]) is above 16 µg/mL.

On to `NCC[C@H](O)C(=O)N[C@@H]1C[C@H](N)[C@@H](O[C@H]2O[C@H](CN)[C@@H](O)[C@H](O)[C@H]2O)[C@H](O)[C@H]1O[C@H]1O[C@H](CO)[C@@H](O)[C@H](N)[C@H]1O` [Amikacin, reference compound], for which the MIC in [13] (setting [14]) is above 32 µg/mL.

As to `CCN1CCN(C(=O)N[C@@H](C(=O)N[C@@H]2C(=O)N3[C@@H]2SC(C)(C)[C@@H]3C(=O)O)c2ccccc2)C(=O)C1=O` [Piperacillin, reference compound], the MIC in test [13] (setting [14]) is above 64 µg/mL.

`CC(C)(O/N=C(\C(=O)N[C@@H]1C(=O)N2C(C(=O)[O-])=C(C[n+]3ccccc3)CS[C@H]12)c1csc(N)n1)C(=O)O` [Ceftazidime, reference compound]: in test [13] (setting [14]), the MIC was above 16 µg/mL.

Turning to `CN(C)c1cc(NC(=O)CNC(C)(C)C)c(O)c2c1C[C@H]1C[C@H]3[C@H](N(C)C)C(O)=C(C(N)=O)C(=O)[C@@]3(O)C(O)=C1C2=O` [Tigecycline, reference compound], the MIC in [13] (FADDIAB030, read-out: minimum inhibitory concentration) came to 4 µg/mL (≈ 6.83 µM).

With `CO/N=C(\C(=O)N[C@@H]1C(=O)N2C(C(=O)O)=C(CSc3nc(=O)c(=O)[nH]n3C)CS[C@H]12)c1csc(N)n1` [Ceftriaxone, reference compound], the MIC in test [13] (setting [14]) is above 32 µg/mL.

For the molecule `C[C@H]1NCc2cc(-c3ccc4c(=O)c(C(=O)O)cn(C5CC5)c4c3OC(F)F)ccc21` [Garenoxacin, reference compound], in test [13] (setting [14]), the MIC was above 4 µg/mL.
